Assay results taken from PubChem BioAssay AID1918949 (Molecular Pharmacology Branch, DTP, NCI, 2023).

Test system: K24384-001-R-PDC complex spheroid viability
Assay: Anticancer human tumor K24384-001-R-PDC patient-derived pancreatic adenocarcinoma cell line growth inhibition
Settings: for IC50: curve of first compound; for viability, T/C: stronger effect = lower value; active = viability on the fitted dose curve at most 10% of control; inactive = the rest
From the text: Multicellular complex tumor spheroid response to LSD1 Inhibitor Iadademstat in combination with a variety of drugs and investigational agents in selected tumor cell lines
The current study was undertaken to assess response to LSD1 inhibitors in combination with standard-of-care drugs and investigational agents in solid tumor complex spheroid models as well as in the K-562 leukemia. Complex spheroids include a stromal component modeled by human endothelial cells (HUVEC) and fibroblasts modeled by human mesenchymal stem cells (MSCs). The concentration ranges selected for each drug and investigational agent were based upon clinically achievable concentrations if the clinical Cmax of the agent was known.
Compounds. The drugs and investigational agents used in this study are listed on Table 1. All of the agents used, including staurosporine (NSC755774) and gemcitabine (NSC613327), were obtained from the Developmental Therapeutics Program, NCI. FDA-approved anticancer drugs are available from the NCI at http://dtp.nci.nih.gov/branches/dscb/oncology_drugset_explanation.html. Drugs and investigational agents were >95% pure by proton nuclear magnetic resonance (NMR) and liquid chromatography/mass spectrometry (LC/MS). Stock solutions were prepared at 400x in DMSO, stored at -70 degrees C, and diluted in fresh medium prior to their use. The final concentration of DMSO in cell culture wells never exceeded 0.25% (v/v). The FDA-approved anticancer drug set is available from the Developmental Therapeutics Program at https://dtp.cancer.gov/organization/dscb/obtaining/available_plates.htm. All drugs and investigational agents were tested over a range starting from a high concentration at or near the clinical Cmax and decreasing in half-log increments. If the clinical Cmax for an agent had not been determined, the highest concentration tested was 10 microM.
Cell Lines. The patient-derived cancer cell (PDC) lines: 292921-168-R-J2-PDC, K24384-001-R-PDC, and 521955-158-R2-J5-PDC pancreatic carcinomas, 556581-035-R-J1 ovarian carcinoma, 324938-238-R-J1-PDC, 855422-203-R-J1-PDC and 883617-216-R-J1-PDC urothelial bladder carcinomas, 743489-274-T-PDC renal cell carcinoma, 138582-R-J1 Merkel cell tumor, K60290-347-R-J1 and K57222-313-R-J1-PDC glioblastomas, 653999-131-R-J2-PDC, LG0703-F948-PDC, and 349418-098-R-PDC non-small cell lung carcinomas, 885512-296-R-J2-PDC, 171881-019-R-J1-PDC breast carcinomas and 186277-243-T-J2-PDC and 233499-124-R-J2-PDC colon carcinomas were obtained from the NCI Patient-Derived Models Repository (PDMR, https://pdmr.cancer.gov). The established cell lines NCI/ADR-RES (RRID:CVCL_14520 and OVCAR-5 (RRID:CVCL_1628) ovarian carcinomas, 786-O (RRID:CVCL_1051) and A498 (RRID:CVCL_A498) renal cell carcinoma, NCI-H211 (ATCC, cat. CRL-5824; RRID:CVCL_1529), NCI-H196 (ATCC, cat. CRL-5823, RRID:CVCL_1509), SW 1271 (ATCC, cat. CRL-2177, RRID:CVCL_1716) and NCI-H1876 (ATCC, cat. CRL-5902, RRID:CVCL_1503) small cell lung carcinomas, MDA-MB-231 (RRID:CVCL_0062) and MDA-MB-468 (RRID:CVCL_0419)breast carcinomas (10-12). Pooled donor human umbilical vein endothelial cells (HUVEC, Lonza, cat. CC-2519) and human mesenchymal stem cells (hMSC, Lonza, cat. PT-2501) were purchased from Lonza (Walkersville, MD).
Cell Culture. All cells were maintained in an incubator at 37 degrees C and 5% CO2 with 95% humidity. The PDC lines were cultured according to standard operating procedures established by the NCI PDMR (https://pdmr.cancer.gov). Briefly all PDCs were thawed and cultured in Matrigel-coated flasks prepared with a working solution of 1X Ham's F-12 nutrient mix, without supplementation (Invitrogen, Waltham, MA, cat. 11765054), 100 U/mL penicillin-streptomycin (Invitrogen, cat. 15140122), and 2.5% Matrigel (Corning Inc., Corning, NY, cat. 354248) for the first three passages. […]

[1] = second compound 0.1 µM, first compound 0.00316 µM
[2] = second compound 0.1 µM, first compound 0.01 µM
[3] = second compound 0.1 µM, first compound 0.0316 µM
[4] = second compound 0.1 µM, first compound 0.1 µM
[5] = second compound 0.316 µM, first compound 0.00316 µM
[6] = second compound 0.316 µM, first compound 0.01 µM
[7] = second compound 0.316 µM, first compound 0.0316 µM
[8] = second compound 0.316 µM, first compound 0.1 µM
[9] = second compound 1 µM, first compound 0.00316 µM
[10] = second compound 1 µM, first compound 0.01 µM
[11] = second compound 1 µM, first compound 0.0316 µM
[12] = second compound 1 µM, first compound 0.1 µM
[13] = second compound 3.16 µM, first compound 0.00316 µM
[14] = second compound 3.16 µM, first compound 0.01 µM
[15] = second compound 3.16 µM, first compound 0.0316 µM
[16] = second compound 3.16 µM, first compound 0.1 µM
[17] = second compound 10 µM, first compound 0.00316 µM
[18] = second compound 10 µM, first compound 0.01 µM
[19] = second compound 10 µM, first compound 0.0316 µM
[20] = second compound 10 µM, first compound 0.1 µM
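Note: spheroids exposed to agents for seven days before luminescence viability reading.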

CC[C@@]1(O)C(=O)OCc2c1cc1n(c2=O)Cc2cc3c(CN(C)C)c(O)ccc3nc2-1 + NC1CC1c1ccc(-c2cccc(O)c2)cc1
8.68 nM: IC50 (second compound 3.16 µM)
9.47 nM: IC50 (second compound 1 µM)
10.4 nM: IC50 (second compound 0.1 µM)
12.1 nM: IC50 (second compound 0.316 µM)
11.4 nM: IC50 (second compound 10 µM)
inactive: viability, T/C (second compound 0.1 µM, first compound 0.000316 µM) 72.3% | viability, T/C (second compound 0.1 µM, first compound 0.001 µM) 81.5% | viability, T/C [1] 79.9% | viability, T/C [2] 50.3% | viability, T/C [3] 43.7% | viability, T/C [4] 33.2% | viability, T/C (second compound 0.316 µM, first compound 0.000316 µM) 76.1% | viability, T/C (second compound 0.316 µM, first compound 0.001 µM) 90.1% | viability, T/C [5] 62.9% | viability, T/C [6] 53.5% | viability, T/C [7] 43.7% | viability, T/C [8] 35.9% | viability, T/C (second compound 1 µM, first compound 0.000316 µM) 78.5% | viability, T/C (second compound 1 µM, first compound 0.001 µM) 89% | viability, T/C [9] 73.3% | viability, T/C [10] 49.8% | viability, T/C [11] 33.5% | viability, T/C [12] 35.3% | viability, T/C (second compound 3.16 µM, first compound 0.000316 µM) 75.8% | viability, T/C (second compound 3.16 µM, first compound 0.001 µM) 79.2% | viability, T/C [13] 77.6% | viability, T/C [14] 46.1% | viability, T/C [15] 42% | viability, T/C [16] 33.9% | viability, T/C (second compound 10 µM, first compound 0.000316 µM) 79% | viability, T/C (second compound 10 µM, first compound 0.001 µM) 81.7% | viability, T/C [17] 84.4% | viability, T/C [18] 51.1% | viability, T/C [19] 40.9% | viability, T/C [20] 41.1%

COc1cc(C2c3cc4c(cc3C(OC3OC5COC(C)OC5C(O)C3O)C3COC(=O)C23)OCO4)cc(OC)c1O (stereo not given) + NC1CC1c1ccc(-c2cccc(O)c2)cc1
inactive: viability, T/C (second compound 0.1 µM, first compound 0.00949 µM) 96.9% | viability, T/C (second compound 0.1 µM, first compound 0.03 µM) 76.4% | viability, T/C (second compound 0.1 µM, first compound 0.0949 µM) 62.4% | viability, T/C (second compound 0.1 µM, first compound 0.3 µM) 47.8% | viability, T/C (second compound 0.1 µM, first compound 0.949 µM) 40.5% | viability, T/C (second compound 0.1 µM, first compound 3 µM) 38.2% | viability, T/C (second compound 0.316 µM, first compound 0.00949 µM) 83.1% | viability, T/C (second compound 0.316 µM, first compound 0.03 µM) 88.7% | viability, T/C (second compound 0.316 µM, first compound 0.0949 µM) 63.4% | viability, T/C (second compound 0.316 µM, first compound 0.3 µM) 44.2% | viability, T/C (second compound 0.316 µM, first compound 0.949 µM) 39.9% | viability, T/C (second compound 0.316 µM, first compound 3 µM) 34.5% | viability, T/C (second compound 1 µM, first compound 0.00949 µM) 74.7% | viability, T/C (second compound 1 µM, first compound 0.03 µM) 77.5% | viability, T/C (second compound 1 µM, first compound 0.0949 µM) 60.5% | viability, T/C (second compound 1 µM, first compound 0.3 µM) 45.6% | viability, T/C (second compound 1 µM, first compound 0.949 µM) 40.8% | viability, T/C (second compound 1 µM, first compound 3 µM) 30.2% | viability, T/C (second compound 3.16 µM, first compound 0.00949 µM) 73.5% | viability, T/C (second compound 3.16 µM, first compound 0.03 µM) 82.1% | viability, T/C (second compound 3.16 µM, first compound 0.0949 µM) 66% | viability, T/C (second compound 3.16 µM, first compound 0.3 µM) 47.9% | viability, T/C (second compound 3.16 µM, first compound 0.949 µM) 41.5% | viability, T/C (second compound 3.16 µM, first compound 3 µM) 32.8% | viability, T/C (second compound 10 µM, first compound 0.00949 µM) 90.7% | viability, T/C (second compound 10 µM, first compound 0.03 µM) 84.9% | viability, T/C (second compound 10 µM, first compound 0.0949 µM) 62.8% | viability, T/C (second compound 10 µM, first compound 0.3 µM) 53.6% | viability, T/C (second compound 10 µM, first compound 0.949 µM) 41.3% | viability, T/C (second compound 10 µM, first compound 3 µM) 42.8%
275 nM: IC50 (second compound 3.16 µM)
263 nM: IC50 (second compound 0.1 µM)
317 nM: IC50 (second compound 10 µM)
238 nM: IC50 (second compound 1 µM)
199 nM: IC50 (second compound 0.316 µM)

Nc1ncn(C2CC(O)C(CO)O2)c(=O)n1 (stereo not given) + NC1CC1c1ccc(-c2cccc(O)c2)cc1
inactive: viability, T/C [1] 89.9% | viability, T/C [2] 86.7% | viability, T/C [3] 97.5% | viability, T/C [4] 80.2% | viability, T/C (second compound 0.1 µM, first compound 0.316 µM) 70.4% | viability, T/C (second compound 0.1 µM, first compound 1 µM) 79% | viability, T/C [5] 78.3% | viability, T/C [6] 98.4% | viability, T/C [7] 86.5% | viability, T/C [8] 85.3% | viability, T/C (second compound 0.316 µM, first compound 0.316 µM) 78.6% | viability, T/C (second compound 0.316 µM, first compound 1 µM) 68.9% | viability, T/C [9] 97.8% | viability, T/C [10] 91.3% | viability, T/C [11] 84% | viability, T/C [12] 67.9% | viability, T/C (second compound 1 µM, first compound 0.316 µM) 72.5% | viability, T/C (second compound 1 µM, first compound 1 µM) 70.6% | viability, T/C [13] 88.4% | viability, T/C [14] 88.4% | viability, T/C [15] 87.8% | viability, T/C [16] 79.2% | viability, T/C (second compound 3.16 µM, first compound 0.316 µM) 80.1% | viability, T/C (second compound 3.16 µM, first compound 1 µM) 82.6% | viability, T/C [17] 101% | viability, T/C [18] 97.2% | viability, T/C [19] 89.4% | viability, T/C [20] 90.3% | viability, T/C (second compound 10 µM, first compound 0.316 µM) 77.9% | viability, T/C (second compound 10 µM, first compound 1 µM) 87.7%
> 1000 nM: IC50 (second compound 0.1 µM) | IC50 (second compound 0.316 µM) | IC50 (second compound 1 µM) | IC50 (second compound 3.16 µM) | IC50 (second compound 10 µM)
